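48-hour exposure; five concentrations; linearly interpolated endpoints. Here, GI50 denotes the concentration required for 50% inhibition of growth.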 Calls of active or inactive are those of the source. Rule as the data show it: active = GI50 up to about 1.1 µM and inactive = higher.
Tests used:
Assay in all cases: DTP human tumour cell line panel, 48 h
SW-620 = test system: SW-620
OVCAR-5 = test system: OVCAR-5
KM12 = test system: KM12
NCI-H522 = test system: NCI-H522
HT-29 = test system: HT-29
UACC-62 = test system: UACC-62
Malme-3M = test system: Malme-3M
MDA-MB-435 = test system: MDA-MB-435
NCI-H226 = test system: NCI-H226
DU-145 = test system: DU-145
NCI-H23 = test system: NCI-H23
UO-31 = test system: UO-31
PC-3 = test system: PC-3
SK-MEL-5 = test system: SK-MEL-5
A549 = test system: A549
SK-MEL-28 = test system: SK-MEL-28
SF-295 = test system: SF-295
SNB-75 = test system: SNB-75
HL-60 = test system: HL-60
NCI/ADR-RES = test system: NCI/ADR-RES

Measured: GI50

CN(CCn1cnc2c1c(=O)n(C)c(=O)n2C)C1CCCCC1
inactive: SW-620 > 100 µM | OVCAR-5 > 100 µM | KM12 > 100 µM | NCI-H522 > 100 µM | HT-29 > 100 µM | UACC-62 > 100 µM | Malme-3M > 100 µM | MDA-MB-435 > 100 µM | NCI-H226 > 100 µM | DU-145 > 100 µM | NCI-H23 > 100 µM | UO-31 > 100 µM | PC-3 > 100 µM | SK-MEL-5 > 100 µM | A549 > 100 µM | SK-MEL-28 > 100 µM | SF-295 > 100 µM | SNB-75 > 100 µM | HL-60 > 100 µM | NCI/ADR-RES > 100 µM

CC1=C[C@@H](C)C[C@]2(C)CC[C@H](O2)[C@]23CC[C@](C(=O)O)(C[C@H](O2)[C@@H]2O[C@@](C)(CC2=O)[C@@H](O)[C@H]2CC[C@@]4(CCC[C@@H](O4)[C@H](C)C(=O)O[C@H]4C[C@H]([C@]5(O)OCC[C@H](C)[C@@H]5O)O[C@H]4C=C1)O2)O3
inactive: SW-620 > 10 µM | OVCAR-5 > 10 µM | KM12 > 10 µM | NCI-H522 > 7.71 µM | HT-29 > 10 µM | UACC-62 > 9.02 µM | Malme-3M > 10 µM | MDA-MB-435 > 10 µM | NCI-H226 > 5.71 µM | DU-145 > 10 µM | NCI-H23 > 10 µM | UO-31 > 10 µM | PC-3 > 10 µM | SK-MEL-5 > 7.23 µM | A549 > 10 µM | SK-MEL-28 > 10 µM | SF-295 > 5.86 µM | SNB-75 3.5 µM | HL-60 > 10 µM | NCI/ADR-RES > 10 µM

Nc1cc2ncnn2c(SCC(=O)N/N=C/C(Br)=C\c2ccccc2)n1
inactive: SW-620 16.4 µM | OVCAR-5 22.1 µM | KM12 17.9 µM | NCI-H522 10.6 µM | HT-29 14.8 µM | UACC-62 7.23 µM | Malme-3M 12.1 µM | MDA-MB-435 15 µM | NCI-H226 20 µM | DU-145 > 10 µM | NCI-H23 10.8 µM | UO-31 15.5 µM | PC-3 12.6 µM | SK-MEL-5 13.4 µM | A549 16.3 µM | SK-MEL-28 16 µM | SF-295 21.8 µM | SNB-75 20.1 µM | HL-60 11.9 µM | NCI/ADR-RES 25.5 µM

N=C1/C(=C/c2ccccc2)C(=O)N=C2SC=NN12
inactive: SW-620 > 100 µM | OVCAR-5 > 100 µM | KM12 > 100 µM | NCI-H522 > 100 µM | HT-29 > 100 µM | UACC-62 > 100 µM | Malme-3M > 100 µM | MDA-MB-435 > 100 µM | NCI-H226 > 100 µM | DU-145 > 100 µM | NCI-H23 > 100 µM | UO-31 > 100 µM | PC-3 > 100 µM | SK-MEL-5 > 100 µM | A549 > 100 µM | SK-MEL-28 > 100 µM | SF-295 > 100 µM | SNB-75 > 100 µM | HL-60 > 100 µM | NCI/ADR-RES > 100 µM

COC(=O)c1ccccc1NC(=O)/C(=N\NC(C)(C)C)C(C#N)c1nc(-c2ccc([N+](=O)[O-])cc2)cs1 (stereo not given)
inactive: SW-620 > 100 µM | OVCAR-5 > 100 µM | KM12 > 100 µM | NCI-H522 > 10 µM | HT-29 > 100 µM | UACC-62 > 100 µM | Malme-3M > 100 µM | MDA-MB-435 > 100 µM | NCI-H226 > 100 µM | DU-145 > 100 µM | NCI-H23 > 100 µM | UO-31 > 100 µM | PC-3 > 100 µM | SK-MEL-5 > 100 µM | A549 > 100 µM | SK-MEL-28 > 100 µM | SF-295 > 100 µM | SNB-75 > 100 µM | HL-60 > 100 µM | NCI/ADR-RES > 100 µM

O=C(CNc1ccc2c(=S)c3ccccc3[nH]c2c1)Nc1ccccc1-c1ccccc1NC(=O)CNc1ccc2c(=S)c3ccccc3[nH]c2c1
inactive: SW-620 18.4 µM | OVCAR-5 28.7 µM | KM12 18.5 µM | NCI-H522 6.38 µM | HT-29 19.7 µM | UACC-62 18.2 µM | Malme-3M 15.7 µM | MDA-MB-435 24 µM | NCI-H226 26 µM | DU-145 18.3 µM | NCI-H23 13.8 µM | UO-31 15.3 µM | PC-3 19.4 µM | SK-MEL-5 15.2 µM | A549 24.3 µM | SK-MEL-28 21.9 µM | SF-295 21.2 µM | SNB-75 26.5 µM | HL-60 2.99 µM | NCI/ADR-RES 31.2 µM

CCC1(CC)C(=O)CC[C@@]2(C)C1=CC[C@H]1[C@@H]3CC[C@H](O)[C@@]3(C)CC[C@@H]12
inactive: SW-620 19.1 µM | OVCAR-5 53.3 µM | KM12 32.1 µM | NCI-H522 19.8 µM | HT-29 15 µM | UACC-62 54.7 µM | Malme-3M 36.1 µM | MDA-MB-435 61 µM | NCI-H226 29 µM | DU-145 33.8 µM | NCI-H23 48.9 µM | UO-31 18.4 µM | PC-3 30.3 µM | SK-MEL-5 47.3 µM | A549 13.5 µM | SK-MEL-28 > 100 µM | SF-295 22.8 µM | SNB-75 35.6 µM | HL-60 18.6 µM | NCI/ADR-RES 43.2 µM

Source: ChEMBL document CHEMBL1201862, “PubChem BioAssay data set” (2004)
